Data from patent US8445449B2, “Method and peptide for regulating cellular activity” (The United States of America, as represented by the …, priority 2004, dated 2013).
Like-named read-outs stand apart in the source and are kept apart here. Where no end group is shown, it is not given here.

Legend:
[1] = tested on: cell viability
[2] = tested on: bacterial-induced middle ear inflammation; settings: 10 μM peptide without bacteria, five mice, 3 days

Sequence | effect on cell viability [1] | effect of peptide alone on fluid area, cell number, tympanic membrane thickness vs PBS injected ear [2] | effect on cell viability ([1]; 10 μM)
ITCVDVDLIYKRRRRRRRRR [Scrambled peptide, reference compound] | no effect on cell viability |  | 
DIVKLTVYDCIRRRRRRRRR [peptide P13] |  | no differences | no effect on cell viability
